Key:
[1] = tested on: culture supernatant of NIOCC 2a; assay: Decolorization using culture supernatant of NIOCC 2a; type: biochemical, unidentified marine fungus NIOCC #2a (MTCC 5159); details: dyes 0.02-0.04%, 60° C., pH 6.0, supernatant concentrated two-fold
Experimental: The process of decolorization of various dyes and effluents using the cell-free supernatant involves addition of filter sterilized culture supernatant of the said fungus grown in the presence of various dyes, inducers and dilute effluents. The decolorization of the effluents was monitored spectrophotometrically at appropriate wavelengths up to 12 hours. The uninoculated culture medium containing these dyes served as control.
NIOCC 2a was grown in B&K medium prepared in sea water of 25 ppt salinity (the pH of the medium being 7.0) for 6 days. It was supplemented with 1% textile effluent B on day 6. The culture supernatant on day 12 was collected and concentrated two-fold. The concentrated enzyme was incubated with various dyes used at concentrations as given in Example 2 and the effluents were used at 10% only. The decolorization was monitored at 6 and 12 hours by incubating the samples in a water bath at 60° C. and pH 6.0 The absorbance maxima specific to that particular dye/effluent was monitored for 6 to 12 hours.

[2] = Decolorization using exopolymeric substance produced by NIOCC 2a; parameters: species or system unidentified marine fungus NIOCC #2a (MTCC 5159); details: 24 hours, dyes 0.015-0.04%, 10 mg EPS, 60° C., phosphate buffer pH 6
Experimental: The process of decolorization of effluents using the exoploymeric substance (EPS) produced by the fungus is carried out using separated and freeze dried EPS. A known amount of EPS is incubated with appropriately diluted effluents for a period of 6 to 12 hours. The decolorization is monitored in the supernatant after centrifugation. While using the EPS, about 10 mg of EPS (dry weight) is contacted with 3 ml of effluent having the final concentration of 10%.
The exopolymeric substance (EPS) of the fungus NIOCC 2a was prepared as follows: 1 liter of a 12 day old culture filtrate was frozen for 12 to 24 hours and allowed to thaw. The EPS precipitated on thawing and was removed by decantation. Methanol at a final concentration of 70% was added to the supernatant to further precipitate the remaining EPS from the culture supernatant. The precipitated EPS was collected by centrifugation and the pooled precipitate was lyophilized. To 10 mg of this EPS, various dyes and effluents were added at concentrations as given in example 2 and incubated at 60° C. with phosphate buffer at pH 6. […]

[3] = tested on: NIOCC 2a; assay: Enhancement of laccase production by inducers; laccase activity in culture supernatant (ABTS); details: for LACCASE ACTIVITY: dyes as inducers at 0.015-0.04%;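 as to all read-outs here: supernatant laccase measured by 2 mM ABTS oxidation in 100 mM glycine-HCl buffer at pH 3, absorbance at 405 nm tracked over time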
Experimental: The laccase activity in the culture supernatant was measured using 2 mM ABTS prepared in 100 mM glycine-HCl buffer (pH 3) at 405 nm spectrophotometrically as a function of time.
In order to enhance the laccase production by MTCC 5159 various inducers were added to a 3 day old culture grown in B&K medium prepared in 25 ppt sea water having a pH of 7.0. The inducers such as p-anisidine, catechol, guaiacol, ferulic acid, vanillic acid, veratryl alcohol and 2,5 dimethyl aniline were used at a final concentration of 1 mM. […] The laccase activity in the culture supernatant was measured at an interval of 3 days up to 21 days as described in Example 1.
Dyes which are generally used for decolorization were also tested for their laccase induction properties. Trypan blue, aniline blue and remazol brilliant blue R at a final concentration of 0.04%, methylene blue, crystal violet, brilliant green and congo red at 0.02% and reactive orange 176 at 0.015% final concentration were added to B & K medium prepared in 25 ppt sea water having the pH of 7.0.

[4] = tested on: fungus MTCC 5159; assay: Decolorization of dyes and effluents by growing fungus culture; type: cell-based, unidentified marine fungus NIOCC #2a (MTCC 5159); details: FIG. 2a, up to day 6
From the text: Black liquor is dark brown in color and after decolorization by the fungus MTCC 5159, it turns light brown after 6 days. Similarly molasses spent wash is dark brown and turns straw color after 6 days. Textile effluents A, originally magenta in color was comparatively difficult to decolorize whereas Textile effluent B, originally bottle green in color was comparatively easy to decolorize to a light green color after 6 days. The process for the decolorization of various effluents utilizing the fungal biomass involves addition of sterilized, appropriately diluted effluents to a 6 day-old culture of NIOCC 2a growing in B&K medium. The degradation of effluents and various dyes is monitored spectrophotometrically by removing an aliquot of sample from these cultures and measuring changes in absorbance at appropriate wavelengths. The decolorization is measured every alternate day up to 6 days. […]
The fungus MTCC 5159 was tested for its ability to decolorize various dyes and effluents by monitoring the change in its specific absorbance maxima every alternate day over a period of 6 days after the dye/effluents were added. […] The extent of decolorization was recorded as residual color (in percentage). […] Effluents like textile effluent A, B, MSW and black liquor were also monitored at their absorbance maxima in B&K medium, at 505, 663, 663 and 317 nm respectively.

Compound | PERCENT DECOLORIZATION ([1]; 6 hours) [%] | PERCENT DECOLORIZATION ([1]; 12 hours) [%] | PERCENT DECOLORIZATION ([2]; listed as Congo red) [%] | PERCENT DECOLORIZATION ([2]; listed as congo red) | comparison of inducers of laccase production, in words [3] | PERCENT DECOLORIZATION [2] [%] | LACCASE ACTIVITY ([3]; day 3) [UL^−1] | LACCASE ACTIVITY ([3]; day 6) [UL^−1] | LACCASE ACTIVITY ([3]; day 8) [UL^−1] | LACCASE ACTIVITY ([3]; day 10) [UL^−1] | LACCASE ACTIVITY ([3]; day 12) [UL^−1] | LACCASE ACTIVITY ([3]; day 14) [UL^−1] | LACCASE ACTIVITY ([3]; day 16) [UL^−1] | LACCASE ACTIVITY ([3]; day 18) [UL^−1] | comparison of dye degradation by the fungus culture, in words [4]
Nc1c(/N=N/c2ccc(-c3ccc(/N=N/c4cc(S(=O)(=O)O)c5ccccc5c4N)cc3)cc2)cc(S(=O)(=O)O)c2ccccc12 [Congo Red, congo red] | 54 | 47 | 29 | not decolorized to these extents |  |  |  |  |  |  |  |  |  |  | 
O=S(=O)([O-])[O-].[Cu+2] [Copper sulphate] |  |  |  |  | best inducer |  |  |  |  |  |  |  |  |  | 
CN(C)c1ccc(C(=C2C=CC(=[N+](C)C)C=C2)c2ccc(N(C)C)cc2)cc1 [Crystal Violet, crystal violet] | 44 | 54 |  |  |  | 80 |  |  |  |  |  |  |  |  | 
CN(C)c1ccc2nc3ccc(=[N+](C)C)cc-3sc2c1 [Methylene Blue, methylene blue] | 3 | 5 |  |  |  |  |  |  |  |  |  |  |  |  | 
Nc1c(S(=O)(=O)[O-])cc(Nc2cccc(S(=O)(=O)CCOS(=O)(=O)[O-])c2)c2c1C(=O)c1ccccc1C2=O.[Na+].[Na+] [RBBR, remazol brilliant blue R] | 67 | 46 |  |  |  | 100 | 3 | 43 | 0 | 0 | 0 | 0 | 0 | 0 | 
Cc1cc(-c2ccc(/N=N/c3c(S(=O)(=O)O)cc4cc(S(=O)(=O)O)cc(N)c4c3O)c(C)c2)ccc1/N=N/c1c(S(=O)(=O)O)cc2cc(S(=O)(=O)O)cc(N)c2c1O [Trypan Blue, Trypan blue] | 22 | 25 |  |  |  | 79 |  |  |  |  |  |  |  |  | 
Reactive orange 176 [RO 176] |  |  |  |  |  | 100 | 21 | 8 | 335 | 949 | 904 | 1158 | 1108 | 1180 | least degraded
aniline blue | 55 | 40 |  |  |  | 75 | 12 | 67 | 21 | 825 | 1051 | 1166 | 1211 | 1048 | 

Reference: patent US8017374B2, “Processes for decolorization of colored effluents” (priority 2005, dated 2011)
